In general, Kd refers to a measure of binding affinity in units of concentration. For orientation: IC50 means the point on the concentration scale where inhibition reaches its midpoint.

The source made the active and inactive calls. The calls are words filed in the database; no cut-off is given here. *1 amine or outer side, *2 acyl side, *3 side chain or, on linkers, in order; H or OH if unused. Where a SMILES comes first, the peptide text is derived from it. [ ]: non-standard residue; d: D form. The star is where a group is joined. ξ: configuration not given here. Glutaryl(5-(14-O-Dox)) = COc1cccc2c1C(=O)c1c(O)c3c(c(O)c1C2=O)C[C@@](O)(C(=O)COC(=O)CCCC(=O)*)C[C@@H]3O[C@H]1C[C@H](N)[C@H](O)[C@H](C)O1; X7 = COc1cccc2c1C(=O)c1c(O)c3c(c(O)c1C2=O)C[C@@](O)(C(=O)CO)C[C@@H]3O[C@H]1C[C@H](NC(=O)CCCCCN2C(=O)CC(*)C2=O)[C@H](O)[C@H](C)O1; X5 = O=C(O)CCCCCCCCCCCCCCCCC(=O)NC(CCC(=O)NCCOCCOCC(=O)NCCOCCOCC(=O)NC(CCCCNC(=O)CCN1C(=O)CC(*)C1=O)C(=O)O)C(=O)O; X3 = CC(C)C(NC(=O)CCCCCN1C(=O)CC(*)C1=O)C(=O)NC(CCCNC(N)=O)C(=O)Nc1ccc(OCC2OC(n3ccc(N)nc3=O)C(F)(F)C2O)cc1; X6 = Nc1ccn(C2OC(COC(=O)CCCCCN3C(=O)CC(*)C3=O)C(O)C2(F)F)c(=O)n1; X2 = NC(=O)C[C@H](N[*:1])C(=O)C[C@@H](CC(=O)O)C(=O)[*:2]; X4 = Nc1ccn(C2OC(COC(=O)CCCC(=O)*)C(O)C2(F)F)c(=O)n1; C18 diacid = O=C(O)CCCCCCCCCCCCCCCCC(=O)*; ξγGlu = O=C(O)C(CCC(=O)[*:2])N[*:1]; AEEA = NCCOCCOCC(=O)O

This passage reports Activity, Kd and IC50 results from ChEMBL document CHEMBL6083182, “Development of Peptide Paratope Mimics Derived from the Anti-ROR1 Antibody and Long-Acting Peptide-Drug Conjugates for Targeted Cancer Therapy” (J Med Chem, 2024).

Series [1] addresses T1, Inactive tyrosine-protein kinase transmembrane receptor ROR1 (Homo sapiens, UniProt Q01973). Briefly: Binding affinity to ROR1 positive human MDA-MB-231 cells at 10 uM administered as FITC-labeled compound and measured after 30 mins by Hoechst 33342 staining based confocal fluorescence microscopic analysis. It counts as cell-based.
Series [2] has as its target T1, Inactive tyrosine-protein kinase transmembrane receptor ROR1. Nature of the series: Binding affinity to N-terminal His/GST-tagged recombinant human ROR1 (453 to 783 residues) extracted from baculovirus infected insect cells assessed as dissociation constant by SPR analysis. A general note: Surface plasmon resonance follows binding to a sensor surface in real time, without labels.

In series [3] the test system is MCF7. Nature of the series: Binding affinity to ROR1 negative human MCF7 cells at 10 uM administered as FITC-labeled compound and measured after 30 mins by Hoechst 33342 staining based confocal fluorescence microscopic analysis. In kind it is functional, cell-based.
The species entered for another series is Homo sapiens. Nature of the series: Binding affinity to CD16A (unknown origin) by SPR analysis.
The subject of a further series is SK-HEP1. Briefly: Cytotoxicity against human SK-HEP1 cells assessed as decrease in cell viability incubated for 24 hrs by CCK-8 assay. In kind it is functional, cell-based. The conditions noted are these: SK-HEP1, 24 h. In general terms: Tetrazolium dyes change colour on reduction, which living cells bring about.
For a further series, the system named is MDA-MB-231. Nature of the series: Cytotoxicity against ROR1-positive human MDA-MB-231 cells assessed as decrease in cell viability incubated for 24 hrs by CCK-8 assay. As to conditions: MDA-MB-231, 24 h. In kind it is functional, cell-based.
A short description of series [4]: Cytotoxicity against human MCF-10A cells assessed as decrease in cell viability incubated for 24 hrs by CCK-8 assay. In kind it is toxicity, cell-based.
The subject of series [5] is MCF7. Nature of the series: Cytotoxicity against ROR1-negative human MCF7 cells assessed as decrease in cell viability incubated for 24 hrs by CCK-8 assay. The conditions noted are these: MCF7, 24 h. It counts as functional, cell-based.

T1 sequence (Q01973 whole entry, the tested form may be a part): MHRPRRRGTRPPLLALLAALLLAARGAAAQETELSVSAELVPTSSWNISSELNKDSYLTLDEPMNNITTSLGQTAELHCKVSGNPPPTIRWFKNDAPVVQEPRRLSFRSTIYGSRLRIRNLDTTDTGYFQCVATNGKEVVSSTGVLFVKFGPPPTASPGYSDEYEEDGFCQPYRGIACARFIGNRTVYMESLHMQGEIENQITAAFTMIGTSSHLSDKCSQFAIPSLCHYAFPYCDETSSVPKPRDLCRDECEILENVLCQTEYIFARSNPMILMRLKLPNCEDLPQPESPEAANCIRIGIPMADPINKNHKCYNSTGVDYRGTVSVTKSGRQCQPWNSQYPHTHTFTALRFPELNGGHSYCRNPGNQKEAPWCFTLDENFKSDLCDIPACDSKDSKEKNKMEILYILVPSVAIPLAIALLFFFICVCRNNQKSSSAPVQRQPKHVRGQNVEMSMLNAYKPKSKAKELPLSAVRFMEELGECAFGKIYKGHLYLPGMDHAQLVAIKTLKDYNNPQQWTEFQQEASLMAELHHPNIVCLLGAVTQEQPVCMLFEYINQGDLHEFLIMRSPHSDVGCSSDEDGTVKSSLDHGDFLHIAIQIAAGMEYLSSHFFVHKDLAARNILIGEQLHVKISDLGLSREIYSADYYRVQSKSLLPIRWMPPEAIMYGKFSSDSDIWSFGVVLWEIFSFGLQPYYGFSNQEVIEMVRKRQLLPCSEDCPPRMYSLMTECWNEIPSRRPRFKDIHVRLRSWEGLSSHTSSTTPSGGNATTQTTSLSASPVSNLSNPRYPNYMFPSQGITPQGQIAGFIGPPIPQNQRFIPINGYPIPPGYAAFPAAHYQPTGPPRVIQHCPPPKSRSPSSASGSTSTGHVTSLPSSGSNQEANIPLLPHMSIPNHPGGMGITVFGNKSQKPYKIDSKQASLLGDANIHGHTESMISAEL

With H-SDINDYPIPGYSTYYGDF-NH2, the outcome in series [1] was Active. Further, the Kd in series [2] is 0.00298 µM. Besides, the outcome in the series on MCF7 [3] was inactive. Moreover, the Activity result in the series filed under Homo sapiens was “Not active; Abnormal Binding Affinity Curves Observed”.

For H-INSGPSDINDRQIPGYSTYWGDF-NH2, in series [2], the Kd came to 0.261 µM.

As to H-SDINDRQI-NH2, the Kd in series [2] is 0.0265 µM.

With `CC[C@H](C)[C@H](NC(=O)[C@H](CC(=O)O)NC(=O)[C@H](CO)NC(=O)CNC(=O)[C@H](CSC1CC(=O)N(CCCCCC(=O)OCC2OC(n3ccc(N)nc3=O)C(F)(F)C2O)C1=O)NC(=O)CNC(=O)[C@H](CCCCN)NC(=O)COCCOCCNC(=O)COCCOCCNC(=O)CCC(NC(=O)CCCCCCCCCCCCCCCCC(=O)O)C(=O)O)C(=O)N[C@@H](CC(N)=O)C(=O)N[C@@H](CC(=O)O)C(=O)N[C@@H](CCCNC(=N)N)C(=O)N[C@@H](CCC(N)=O)C(=O)N[C@H](C(=O)N1CCC[C@H]1C(=O)NCC(=O)N[C@@H](Cc1ccc(O)cc1)C(=O)N[C@@H](CO)C(=O)N[C@H](C(=O)N[C@@H](Cc1ccc(O)cc1)C(=O)N[C@@H](Cc1c[nH]c2ccccc12)C(=O)NCC(=O)N[C@@H](CC(=O)O)C(=O)N[C@@H](Cc1ccccc1)C(N)=O)[C@@H](C)O)[C@@H](C)CC` (some centres not stated) ({C18 diacid-ξγGlu-AEEA-AEEA}-KGC(X6)GSDINDRQIPGYSTYWGDF-NH2), the IC50 stood at 26 µM in the series with SK-HEP1, 15.8 µM with MDA-MB-231 and 16.6 µM in the series on MCF7 [5]. The Kd in series [2] is 0.124 µM. For the same compound, the IC50 at 24 h in series [4] turned out to be 30.1 µM.

With `Nc1ccn([C@@H]2O[C@H](CO)[C@@H](O)C2(F)F)c(=O)n1` [GEMCITABINE], the half-maximal inhibitory concentration (IC50) in the series on SK-HEP1 came out at 3.67 µM; in the series on MDA-MB-231, 1.78 µM; with MCF7 [5] it was 4.79 µM. Also, the IC50 at 24 h in series [4] came to 3.23 µM.

Turning to H-INSGPSDINDYPI-NH2, the Kd in series [2] is 0.0405 µM.

As for `CC[C@H](C)[C@H](NC(=O)[C@H](CC(=O)O)NC(=O)[C@H](CO)NC(=O)CNC(=O)[C@H](CSC1CC(=O)N(CCC(=O)NCCCCC(NC(=O)COCCOCCNC(=O)COCCOCCNC(=O)CCC(NC(=O)CCCCCCCCCCCCCCCCC(=O)O)C(=O)O)C(=O)O)C1=O)NC(=O)CNC(=O)[C@H](CCCCN)NC(=O)CCCC(=O)OCC1OC(n2ccc(N)nc2=O)C(F)(F)C1O)C(=O)N[C@@H](CC(N)=O)C(=O)N[C@@H](CC(=O)O)C(=O)N[C@@H](CCCNC(=N)N)C(=O)N[C@@H](CCC(N)=O)C(=O)N[C@H](C(=O)N1CCC[C@H]1C(=O)NCC(=O)N[C@@H](Cc1ccc(O)cc1)C(=O)N[C@@H](CO)C(=O)N[C@H](C(=O)N[C@@H](Cc1ccc(O)cc1)C(=O)N[C@@H](Cc1c[nH]c2ccccc12)C(=O)NCC(=O)N[C@@H](CC(=O)O)C(=O)N[C@@H](Cc1ccccc1)C(N)=O)[C@@H](C)O)[C@@H](C)CC` (some centres not stated) (X4-KGC(X5)GSDINDRQIPGYSTYWGDF-NH2), the IC50 in the series on SK-HEP1 was 7.54 µM; in the series on MDA-MB-231 it was 0.301 µM; in the series with MCF7 [5], 17.8 µM. Moreover, the Kd in series [2] was found to be 0.0398 µM. In addition, in series [4], the IC50 at 24 h came out at 27.9 µM.

As to H-INSGPGYSTYYGDF-NH2, the outcome in series [1] was Active. In series [2], the Kd worked out at 0.00121 µM. Besides, the outcome with MCF7 [3] was inactive. In the series listed under Homo sapiens, the Activity entry was “Not active; Abnormal Binding Affinity Curves Observed”.

On to `CC[C@H](C)[C@H](NC(=O)[C@H](CC(=O)O)NC(=O)[C@H](CO)NC(=O)CNC(=O)[C@H](CSC1CC(=O)N(CCC(=O)NCCCCC(NC(=O)COCCOCCNC(=O)COCCOCCNC(=O)CCC(NC(=O)CCCCCCCCCCCCCCCCC(=O)O)C(=O)O)C(=O)O)C1=O)NC(=O)CNC(=O)[C@H](CCCCN)NC(=O)CCCC(=O)OCC(=O)[C@]1(O)Cc2c(O)c3c(c(O)c2[C@@H](O[C@H]2C[C@H](N)[C@H](O)[C@H](C)O2)C1)C(=O)c1c(OC)cccc1C3=O)C(=O)N[C@@H](CC(N)=O)C(=O)N[C@@H](CC(=O)O)C(=O)N[C@@H](CCCNC(=N)N)C(=O)N[C@@H](CCC(N)=O)C(=O)N[C@H](C(=O)N1CCC[C@H]1C(=O)NCC(=O)N[C@@H](Cc1ccc(O)cc1)C(=O)N[C@@H](CO)C(=O)N[C@H](C(=O)N[C@@H](Cc1ccc(O)cc1)C(=O)N[C@@H](Cc1c[nH]c2ccccc12)C(=O)NCC(=O)N[C@@H](CC(=O)O)C(=O)N[C@@H](Cc1ccccc1)C(N)=O)[C@@H](C)O)[C@@H](C)CC` (some centres not stated) ({Glutaryl(5-(14-O-Dox))}-KGC(X5)GSDINDRQIPGYSTYWGDF-NH2), for which the IC50 in the series on SK-HEP1 was determined as 1.27 µM; in the series on MDA-MB-231, 2.83 µM; with MCF7 [5], 16.9 µM. The Kd in series [2] came out at 0.0665 µM. Further, the IC50 at 24 h in series [4] is 10.1 µM.

In the case of `CC[C@H](C)[C@H](NC(=O)[C@H](CC(=O)O)NC(=O)[C@H](CO)NC(=O)CNC(=O)[C@H](CSC1CC(=O)N(CCCCCC(=O)N[C@H]2C[C@H](O[C@H]3C[C@](O)(C(=O)CO)Cc4c(O)c5c(c(O)c43)C(=O)c3c(OC)cccc3C5=O)O[C@@H](C)[C@H]2O)C1=O)NC(=O)CNC(=O)[C@H](CCCCN)NC(=O)COCCOCCNC(=O)COCCOCCNC(=O)[C@H](CCC(=O)O)NC(=O)CCCCCCCCCCCCCCCCC(=O)O)C(=O)N[C@@H](CC(N)=O)C(=O)N[C@@H](CC(=O)O)C(=O)N[C@@H](CCCNC(=N)N)C(=O)N[C@@H](CCC(N)=O)C(=O)N[C@H](C(=O)N1CCC[C@H]1C(=O)NCC(=O)N[C@@H](Cc1ccc(O)cc1)C(=O)N[C@@H](CO)C(=O)N[C@H](C(=O)N[C@@H](Cc1ccc(O)cc1)C(=O)N[C@@H](Cc1c[nH]c2ccccc12)C(=O)NCC(=O)N[C@@H](CC(=O)O)C(=O)N[C@@H](Cc1ccccc1)C(N)=O)[C@@H](C)O)[C@@H](C)CC` (some centres not stated) ({C18 diacid}-E[AEEA][AEEA]KGC(X7)GSDINDRQIPGYSTYWGDF-NH2), the IC50 was found to be 20 µM in the series on SK-HEP1, 14.6 µM in the series with MDA-MB-231 and 35.6 µM in the series on MCF7 [5]. In addition, the Kd in series [2] amounted to 0.152 µM. Besides, in series [4], the IC50 at 24 h is 27.3 µM.

Consider H-GYSTYWGDF-NH2, for which the Kd in series [2] was 0.147 µM.

For the compound `CC[C@H](C)[C@H](NC(=O)[C@H](CC(=O)O)NC(=O)[C@H](CO)NC(=O)CNC(=O)[C@H](CSC1CC(=O)N(CCCCCC(=O)NC(C(=O)NC(CCCNC(N)=O)C(=O)Nc2ccc(OCC3OC(n4ccc(N)nc4=O)C(F)(F)C3O)cc2)C(C)C)C1=O)NC(=O)CNC(=O)[C@H](CCCCN)NC(=O)COCCOCCNC(=O)COCCOCCNC(=O)CCC(NC(=O)CCCCCCCCCCCCCCCCC(=O)O)C(=O)O)C(=O)N[C@@H](CC(N)=O)C(=O)C[C@@H](CC(=O)O)C(=O)N[C@@H](CCCNC(=N)N)C(=O)N[C@@H](CCC(N)=O)C(=O)N[C@H](C(=O)N1CCC[C@H]1C(=O)NCC(=O)N[C@@H](Cc1ccc(O)cc1)C(=O)N[C@@H](CO)C(=O)N[C@H](C(=O)N[C@@H](Cc1ccc(O)cc1)C(=O)N[C@@H](Cc1c[nH]c2ccccc12)C(=O)NCC(=O)N[C@@H](CC(=O)O)C(=O)N[C@@H](Cc1ccccc1)C(N)=O)[C@@H](C)O)[C@@H](C)CC` (some centres not stated) ({C18 diacid-ξγGlu-AEEA-AEEA}-KGC(X3)GSDI[X2]RQIPGYSTYWGDF-NH2), the IC50 in the series on SK-HEP1 is 1.23 µM; with MDA-MB-231, 6.79 µM; in the series with MCF7 [5], greater than 50 µM. The Kd in series [2] is 0.0285 µM. In addition, the IC50 at 24 h in series [4] worked out at 14.6 µM.

Take H-INSGPSDINDYPIPGYSTYYGDF-NH2: in series [2], the Kd came out at 0.713 µM.
